According to patent US20260109721A1, “IONIZABLE CATIONIC LIPIDS INCORPORATING SILICON: SYNTHESIS AND LNP FORMULATION” (priority 2023, published 2026):
Like-named read-outs stand apart in the source and are kept apart here.

Experiments:
HeLa cells = assay: Cell viability assessment with resazurin assay (Method A); format: cell-based; details: human
Method: (§1) The synthesized lipids were tested in term of in vitro transfection efficacy and toxicity on HeLa cells. In order to perform the mentioned biological tests, appropriate LNPs had to be formulated from the synthesized lipids. The formulation technique was different in Method A and B. The particle size, polydispersity index (PDI) and zeta potential of resulting LNPs were determined by means of Dynamic Light Scattering technique (DLS). Prior to biological testing the encapsulation efficiency (EE) of the loaded LNPs was determined by using RiboGreen RNA assay. In case of Method A Luc mRNA while in case of Method B GFP mRNA was transfected into the cells. In parallel with the transfection experiments, toxicity of the investigated LNPs was determined, in case of Method A resazurin assay while in case of Method B MTT assay was used. Additionally, the toxicity of the lipids was investigated on HepG2 cells and IC50 values were determined.
This protocol is used to determine the metabolic activity of cells as a measure for cell viability after exposure to potentially toxic substances. Resazurin is converted in mitochondria by reduction to resorufin, which has a much higher fluorescence at ˜600 nm compared to unconverted resazurin. A lower amount/percentage of conversion is correlated with reduced cellular metabolism and indirectly to cellular death and toxicity. Care must be taken with interpretation of the read-out, as 50% reduction in resazurin conversion may mean 50% reduction of cellular metabolism of 100% alive cells, or 50% of cells dead, and any combination in between.
• 1. Prepare 0.25 mg/ml stock solution resazurin in fresh cell culture medium. Resazurin is auto-reducing over time in solution, especially in medium, and fresh stocks should be prepared every 2-3 days. Stocks should be stored at 4° C. and protected from light. For HeLa cells, DMEM/F12 with 10% FCS is used. • 2. Dilute stock solution 10× in fresh cell culture medium to 0.025 mg/ml->ready for application on cells. For HeLa cells, DMEM/F12 with 10% FCS is used. • 3. Collect 96-well plate and replace cell-culture spent medium with 100 μl per well resazurin solution. Add some resazurin solution for background measurement in wells not containing cells. • 4. Incubate for 50 minutes in incubator at 37° C., 5% CO2, 95% RH. • 5. Transfer resazurin solution to a fresh 96- or 384-well plate. • 6. Measure in plate reader using 540/25 nm (excitation) and 610/40 nm (emission) using standard settings (PTM low/OD-1.0). • 7. Subtract the average background measurement from all samples. Set the average of the negative controls (well receiving OptiMEM only during transfection) to 100% and express all values as percentage of the control activity. Typically, at lower levels of treatment, elevation of metabolic activity is shown, whereas for toxic substances, at toxic concentrations sigmoidal curves can be obtained, with lower activity indicating higher toxicity.

[1] = Encapsulation efficiency of loaded LNPs, RiboGreen RNA assay (Method A); format: physicochemical
Method: as §1
• 1. Preparation of sample stock solutions: In the top row of the 96-well plate (Row A in the plate), add 297 μL of TE buffer pH 7.4 (see Table 1) to a single well for each sample plus a single well for a PBS blank using a multichannel pipette.
• 2. Add 3 μL of sample (at 0.5 mg/ml) to these wells for a final volume of 300 μL. Add 3 μL of PBS to the blank well. Pipette to mix. This is your stock solution for each sample. The final RNA concentration of these stock solutions should be approximately 4-7 μg/mL. • 3. mRNA-LNP sample setup: • a. Add 50 μL of TE buffer pH 7.5 to the two wells directly below each sample (Rows B and C in the plate). • b. Add 50 μL of sample stock solution from Row A into the wells in Rows B and C (this assay is run in duplicate. All liquid handling should be done using a multichannel pipette). • c. Add 50 μL of Triton buffer to the wells in Rows D and E (in the plate) below each sample. • d. Add 50 μL of sample stock solution from Row A into the wells in Rows D and E. • 4. RiboGreen RNA standard curve setup: Dilute the RNA standard to produce an RNA stock at a final concentration of 20 μg/mL in TE buffer pH 7.4. The final volume should be 150 μL. Set up a standard curve (in duplicate) as using the RNA stock (20 μg/mL siRNA), TE buffer pH 7.5, and Triton X-100 buffer according the Table 2 and Table 3 below.
• 5. Once samples and standard curve are plated, incubate the plate at 37° C. for 10 min to lyse mRNA-LNP in the presence of Triton X-100 buffer. • 6. Meanwhile, prepare RiboGreen Solution: Sum the total number of sample wells and standard curve wells. Add three to this number, and multiply the total by 100. This is the total volume, in μL, of RiboGreen Solution needed for this assay. In a 15 mL RNAse-free Falcon tube, dilute the RiboGreen Reagent 1:100 into TE buffer pH 7.5 to the total volume calculated. • 7. Addition of RiboGreen Solution and sample readings: Remove a 96-well plate from 37° C. incubator; let it cool to room temperature as RiboGreen binding is somewhat temperature dependent. Add 100 μL of RiboGreen Solution to each well. Pop any air bubbles with a needle. Read using fluorescent plate reader (excitation=480, emission=525). • 8. Sample analysis: Use the data generated by the RiboGreen standard curve to calculate the concentration of mRNA. Transfection Efficiency with Luciferase-mRNA (Method A)

[2] = encapsulation efficiency of mRNA-loaded LNP, Method A, RiboGreen

CCCCC/C=C\C/C=C\CCCCCCCCOC(CCCCCCC/C=C\C/C=C\CCCCC)O[Si](C)(C)OCCCCCCN(C)Cc1cn(C2[C@H](O)O[C@H](CO)[C@@H](O)[C@@H]2O)nn1 (stereo partly drawn) [Example 68, (4R,5S,6R)-3-(4-((22Z,25Z)-12-((8Z,11Z)-heptadeca-8,11-dien-1-yl)-2,10,10-trimethyl-9,11,13-trioxa-2-aza-10-silahentriaconta-22,25-dien-1-yl)-1H-1,2,3-triazol-1-yl)-6-(hydroxymethyl)tetrahydro-2H-pyran-2,4,5-triol]
Cell Viability % (Average metabolic rate over all doses, Resazurin) (HeLa cells): 92%
EE (%) [1, 2]: 88%

CCCCC/C=C\C/C=C\CCCCCCCCOC(CCCCCCC/C=C\C/C=C\CCCCC)O[Si](C)(C)OCCCCCCN1CCN(CCCCCCO[Si](C)(C)OC(CCCCCCC/C=C\C/C=C\CCCCC)OCCCCCCCC/C=C\C/C=C\CCCCC)CC1 (stereo not shown) [Example 70, 1,4-bis((20Z,23Z)-10-((8Z,11Z)-heptadeca-8,11-dien-1-yl)-8,8-dimethyl-7,9,11-trioxa-8-silanonacosa-20,23-dien-1-yl)piperazine]
Cell Viability % (Average metabolic rate over all doses, Resazurin) (HeLa cells): 99%
EE (%) [1, 2]: 81%

CCCCC/C=C\C/C=C\CCCCCCCCOC(CCCCCCC/C=C\C/C=C\CCCCC)O[Si](C)(C)OCCCCCCN(CCO)CCN(CCO)CCCCCCO[Si](C)(C)OC(CCCCCCC/C=C\C/C=C\CCCCC)OCCCCCCCC/C=C\C/C=C\CCCCC (stereo not shown) [Example 71, (26Z,29Z)-16-((8Z,11Z)-heptadeca-8,11-dien-1-yl)-3-((20Z,23Z)-10-((8Z,11Z)-heptadeca-8,11-dien-1-yl)-8,8-dimethyl-7,9,11-trioxa-8-silanonacosa-20,23-dien-1-yl)-6-(2-hydroxyethyl)-14,14-dimethyl-13,15,17-trioxa-3,6-diaza-14-silapentatriaconta-26,29-dien-1-ol]
Cell Viability % (Average metabolic rate over all doses, Resazurin) (HeLa cells): 85%
EE (%) [1, 2]: 84%

CCCCCCCC/C=C\CCCCCCCC(OCC(CCCCCCCC)SCCCCC)O[Si](C)(C)OCCCCCCN(CCO)CCO (stereo not shown) [Example 72, (Z)-13-(heptadec-8-en-1-yl)-3-(2-hydroxyethyl)-11,11-dimethyl-16-octyl-10,12,14-trioxa-17-thia-3-aza-11-siladocosan-1-ol]
Cell Viability % (Average metabolic rate over all doses, Resazurin) (HeLa cells): 107%
EE (%) [1, 2]: 87%

CCCCCCCC/C=C\CCCCCCCC(OCC(CCCCCCCC)SCCCCCCCCCC)O[Si](C)(C)OCCCCCCN(CCO)CCO (stereo not shown) [Example 73, (Z)-13-(heptadec-8-en-1-yl)-3-(2-hydroxyethyl)-11,11-dimethyl-16-octyl-10,12,14-trioxa-17-thia-3-aza-11-silaheptacosan-1-ol]
Cell Viability % (Average metabolic rate over all doses, Resazurin) (HeLa cells): 107%
EE (%) [1, 2]: 87%

CCCCCCCC/C=C\CCCCCCCC(OCCCCCCCCCCCC1CCCCC1)O[Si](C)(C)OCCCCCCN(CCO)CCO (stereo not shown) [Example 74, (Z)-25-cyclohexyl-13-(heptadec-8-en-1-yl)-3-(2-hydroxyethyl)-11,11-dimethyl-10,12,14-trioxa-3-aza-11-silapentacosan-1-ol]
Cell Viability % (Average metabolic rate over all doses, Resazurin) (HeLa cells): 107%
EE (%) [1, 2]: 87%

CCCCCCCC/C=C\CCCCCCCC(OCCC(C)CCCC(C)CCCC(C)CCCC(C)C)O[Si](C)(C)OCCCCCCN(CCO)CCO (stereo not shown) [Example 75, (Z)-13-(heptadec-8-en-1-yl)-3-(2-hydroxyethyl)-11,11,17,21,25,29-hexamethyl-10,12,14-trioxa-3-aza-11-silatriacontan-1-ol]
Cell Viability % (Average metabolic rate over all doses, Resazurin) (HeLa cells): 120%
EE (%) [1, 2]: 89%

CCCCCCCC/C=C\CCCCCCCC(OCCCCCCCCCCCCCCC(C)C)O[Si](C)(C)OCCCCCCN(CCO)CCO (stereo not shown) [Example 76, (Z)-13-(heptadec-8-en-1-yl)-3-(2-hydroxyethyl)-11,11,29-trimethyl-10,12,14-trioxa-3-aza-11-silatriacontan-1-ol]
Cell Viability % (Average metabolic rate over all doses, Resazurin) (HeLa cells): 110%
EE (%) [1, 2]: 80%

CCCCC/C=C\C/C=C\CCCCCCCCOC(CCCCCCC/C=C\C/C=C\CCCCC)O[Si](C)(C)OCCCCCCN(C)[C@H](CO)Cc1ccccc1 (stereo partly drawn) [Example 77, (2S,23Z,26Z)-2-benzyl-13-((8Z,11Z)-heptadeca-8,11-dien-1-yl)-3,11,11-trimethyl-10,12,14-trioxa-3-aza-11-siladotriaconta-23,26-dien-1-ol]
Cell Viability % (Average metabolic rate over all doses, Resazurin) (HeLa cells): 112%
EE (%) [1, 2]: 85%

CCCCCCCC/C=C\CCCCCCCCOC(CCCCCCC/C=C\CCCCCCCC)O[Si](C)(C)OCCCCCCN(C)[C@H](CO)Cc1ccccc1 (stereo partly drawn) [Example 78, (2S,Z)-2-benzyl-13-((Z)-heptadec-8-en-1-yl)-3,11,11-trimethyl-10,12,14-trioxa-3-aza-11-siladotriacont-23-en-1-ol]
Cell Viability % (Average metabolic rate over all doses, Resazurin) (HeLa cells): 121%
EE (%) [1, 2]: 87%

CCCCC/C=C\C/C=C\CCCCCCCCOC(CCCCCCC/C=C\C/C=C\CCCCC)O[Si](C)(C)OCCCCCCN(C)C (stereo not shown) [Example 79, (20Z,23Z)-10-((8Z,11Z)-heptadeca-8,11-dien-1-yl)-N,N,8,8-tetramethyl-7,9,11-trioxa-8-silanonacosa-20,23-dien-1-amine]
Cell Viability % (Average metabolic rate over all doses, Resazurin) (HeLa cells): 91%
EE (%) [1]: 83%

CCCCC/C=C\C/C=C\CCCCCCCCO[Si](C)(C)OC(CCCCCCC/C=C\C/C=C\CCCCC)OCCCN(C)C (stereo not shown) [Example 80, (17Z,20Z)-5-((8Z,11Z)-heptadeca-8,11-dien-1-yl)-N,N,7,7-tetramethyl-4,6,8-trioxa-7-silahexacosa-17,20-dien-1-amine]
Cell Viability % (Average metabolic rate over all doses, Resazurin) (HeLa cells): 99%
EE (%) [1]: 83%

CCCCC/C=C\C/C=C\CCCCCCCCO[Si](C)(C)OC(CCCCCCC/C=C\CCCCCCCC)OCCCN(C)C (stereo not shown) [Example 81, (17Z,20Z)-5-((Z)-heptadec-8-en-1-yl)-N,N,7,7-tetramethyl-4,6,8-trioxa-7-silahexacosa-17,20-dien-1-amine]
Cell Viability % (Average metabolic rate over all doses, Resazurin) (HeLa cells): 100%
EE (%) [1]: 86%

CCCCC/C=C\C/C=C\CCCCCCCCOC(CCCCCCC/C=C\C/C=C\CCCCC)O[Si](C)(C)O[Si](C)(C)CCCCCCN(CCO)CCO (stereo not shown) [Example 82, (24Z,27Z)-14-((8Z,11Z)-heptadeca-8,11-dien-1-yl)-3-(2-hydroxyethyl)-10,10,12,12-tetramethyl-11,13,15-trioxa-3-aza-10,12-disilatritriaconta-24,27-dien-1-ol]
Cell Viability % (Average metabolic rate over all doses, Resazurin) (HeLa cells): 97%
EE (%) [1, 2]: 80%
